Measured values taken from ChEMBL document CHEMBL1155149, “In vitro activities of 15 antimicrobial agents against 110 toxigenic clostridium difficile clinical isolates collected from 1983 to 2004” (2007).
In brackets after ≈: the same amount, converted by molar mass.

The molecules below were run on Clostridioides difficile (assay: Antimicrobial activity against Clostridium difficile clinical isolates by agar dilution method).
Type: functional
`COc1c(N2CCNC(C)C2)c(F)cc2c(=O)c(C(=O)O)cn(C3CC3)c12` (stereo unspecified) [GATIFLOXACIN] was tested, and the MIC50 was 1 µg/mL (≈ 2.66 µM) and the MIC90 was 16 µg/mL (≈ 42.6 µM).
Molecule `C[C@H]1COc2c(N3CCN(C)CC3)c(F)cc3c(=O)c(C(=O)O)cn1c23.C[C@H]1COc2c(N3CCN(C)CC3)c(F)cc3c(=O)c(C(=O)O)cn1c23.O` [LEVOFLOXACIN] has an MIC50 of 4 µg/mL and an MIC90 of 32 µg/mL.
For `O=C(Nc1ncc([N+](=O)[O-])s1)c1ccccc1O` [TIZOXANIDE], the MIC50 was 0.06 µg/mL (≈ 0.226 µM) and the MIC90 was 0.125 µg/mL (≈ 0.471 µM).
`CC(=O)Oc1ccccc1C(=O)Nc1ncc([N+](=O)[O-])s1` [NITAZOXANIDE] showed an MIC50 of 0.06 µg/mL (≈ 0.195 µM) and an MIC90 of 0.125 µg/mL (≈ 0.407 µM).
`CO[C@H]1/C=C/O[C@@]2(C)Oc3c(C)c(O)c4c(=O)c(c5oc6cc(N7CCN(CC(C)C)CC7)cc(O)c6nc-5c4c3C2=O)NC(=O)/C(C)=C\C=C\[C@H](C)[C@H](O)[C@@H](C)[C@@H](O)[C@@H](C)[C@H](OC(C)=O)[C@@H]1C` [RIFALAZIL] was tested, and the MIC50 was 0.0075 µg/mL (≈ 0.00797 µM) and the MIC90 was 0.03 µg/mL (≈ 0.0319 µM).
In the case of `C[C@@H](O)[C@H]1C(=O)N2C(C(=O)O)=C(S[C@@H]3CN[C@H](CNS(N)(=O)=O)C3)[C@H](C)[C@H]12` [DORIPENEM], the MIC50 is reported as 1 µg/mL (≈ 2.38 µM) and the MIC90 is reported as 2 µg/mL (≈ 4.76 µM).
With `CCS(=O)(=O)CCn1c([N+](=O)[O-])cnc1C` [TINIDAZOLE] the MIC50 was 0.125 µg/mL (≈ 0.506 µM) and the MIC90 was 0.25 µg/mL (≈ 1.01 µM).
For `CCc1c(Cl)c(O)c(Cl)c(O)c1C(=O)O[C@H]1[C@H](O)[C@H](OC)[C@H](OC/C2=C\C=C\C[C@H](O)/C(C)=C/[C@H](CC)[C@@H](O[C@@H]3OC(C)(C)[C@@H](OC(=O)C(C)C)[C@H](O)[C@@H]3O)/C(C)=C/C(C)=C/C[C@@H]([C@@H](C)O)OC2=O)O[C@@H]1C` [FIDAXOMICIN], the MIC50 was 0.125 µg/mL (≈ 0.118 µM) and the MIC90 was 0.125 µg/mL (≈ 0.118 µM).
`CN(C)c1cc(NC(=O)CNC(C)(C)C)c(O)c2c1C[C@H]1C[C@H]3[C@H](N(C)C)C(O)=C(C(N)=O)C(=O)[C@@]3(O)C(O)=C1C2=O` [TIGECYCLINE] was tested, and the MIC50 was 0.125 µg/mL (≈ 0.213 µM) and the MIC90 was 0.25 µg/mL (≈ 0.427 µM).
`CN[C@H](CC(C)C)C(=O)N[C@H]1C(=O)N[C@@H](CC(N)=O)C(=O)N[C@H]2C(=O)N[C@H]3C(=O)N[C@H](C(=O)N[C@H](C(=O)O)c4cc(O)cc(O)c4-c4cc3ccc4O)[C@H](O)c3ccc(c(Cl)c3)Oc3cc2cc(c3O[C@@H]2O[C@H](CO)[C@@H](O)[C@H](O)[C@H]2O[C@H]2C[C@](C)(N)[C@H](O)[C@H](C)O2)Oc2ccc(cc2Cl)[C@H]1O` [VANCOMYCIN] gave an MIC50 of 1 µg/mL (≈ 0.69 µM) and an MIC90 of 1 µg/mL (≈ 0.69 µM).
Work on `CO[C@H]1/C=C/O[C@@]2(C)Oc3c(C)c(O)c4c(O)c(c5c(nc6cc(C)ccn65)c4c3C2=O)NC(=O)/C(C)=C\C=C\[C@H](C)[C@H](O)[C@@H](C)[C@@H](O)[C@@H](C)[C@H](OC(C)=O)[C@@H]1C` [RIFAXIMIN] yielded an MIC50 of 0.0075 µg/mL (≈ 0.00954 µM) and an MIC90 of 0.015 µg/mL (≈ 0.0191 µM).
With `C[C@@H](O)[C@H]1C(=O)N2C(C(=O)O)=C(S[C@@H]3CN[C@H](C(=O)N(C)C)C3)[C@H](C)[C@H]12` [MEROPENEM] the MIC50 was 2 µg/mL (≈ 5.22 µM) and the MIC90 was 2 µg/mL (≈ 5.22 µM).
Molecule `Cc1ncc([N+](=O)[O-])n1CCO` [METRONIDAZOLE] has an MIC50 of 0.125 µg/mL (≈ 0.73 µM) and an MIC90 of 0.25 µg/mL (≈ 1.46 µM).
